Laboratory results as given in patent US9863938B2, “Synthetic antibodies” (ARIZONA BOARD OF REGENTS, A BODY CORPORATE OF THE STATE OF …, priority 2006, dated 2018).
Where two headings read alike, the source gives them in different places. Blank lines part the entries; values can stand above or below the substance they belong to. Bridge positions count the residues as written; N and C are the ends. Ends that are not written are not given here. I, II: the chains in the order shown.

What was measured:
[1] = target: T1, transferrin (Homo sapiens, UniProt P02787); test: SPR steady-state solution phase KD of candidate affinity elements, transferrin immobilized on Biacore T100 chip; type: binding
Method: Transferrin was immobilized by amine-coupling to the carboxyl-functionalized surface of a Biacore T100 CMS Dextran SPR chip as illustrated in FIG. 11. A 1:1 mixture of EDC (0.4M 1-ethyl-3-(3-dimethylaminopropyl)-carbodiimide in water) and NHS (0.1M N-hydroxysuccinimide in water) was applied 300 at a flow rate of 5 to 10 μl/min for a contact time of about 6 to 10 minutes to activate the surface by conjugating […] 306 to the surface-exposed carboxyl groups. Transferrin 25 μg/ml in immobilization buffer selected for correct pH was then applied 302 at a flow rate of 5 to 10 μl/min for a contact time of about 5 to 10 minutes, allowing the amine functionality on the transferrin 308 to displace the activated NHS ester and bond to the surface via an amide bond. Finally, ethylene diamine (1 M ethylene diamine-HCl at pH 8.5) was applied at a flow rate of 5 to 10 μl/min for a contact time of about 6 to 7 minutes to deactivate any remaining reactive groups on the dextran chip surface. Flow rates and contact times are adjusted as necessary to provide the surface concentration of target desired for the intended application, and may vary by target. In general, for evaluating whether binding occurs, it is preferable to immobilize a relatively large quantity of target, and higher flow rates and/or longer contact times may be used. For determining kinetics, it is preferable to limit the amount of target immobilized so as to minimize rebinding and avidity effects, and lower flow rates and/or contact times may be used.
Candidate affinity elements for the transferrin synbody TRF 19 (SEQ ID NO: 1), TRF21 (SEQ ID NO: 3), TRF23 (SEQ ID NO: 5), TRF24 (SEQ ID NO: 6), TRF25 (SEQ ID NO: 7), and TRF26 (SEQ ID NO: 8) were individually evaluated for solution phase KD with respect to transferrin by SPR analysis. Because the off rates for these polypeptides were very high, KD values were estimated by measuring steady-state response for at least five concentrations in a two-fold dilution series, each concentration tested in duplicate. For each experiment, response data were processed using a reference surface to correct for bulk refractive index changes and any nonspecific binding. Data were also double referenced using responses from blank running buffer injections. Each experiment was conducted at 25° C. using PBST (0.01M Phosphate Buffered Saline, 0.138M NaCl, 0.0027M KCl, 0.05% surfactant Tween20, pH 7.4) as the running buffer on a Biacore T100 instrument. Analytes were injected for 60 s at a flow rate of 30 μl/min. The antigen surfaces were regenerated with 30 s consecutive pulses of NaOH/NaCl (50 mM NaOH in IM NaCl) and Glycine (10 mM glycine —HCl, pH 2.5).

[2] = target: T2, human α-thrombin (Homo sapiens, UniProt P00734); test: ELISA-type assay on wells coated with thrombin; type: binding; details: read-out: Dissociation constant estimated
T2 construct: concentrations of human α-thrombin ranging from 0 to 100 nM
Method: Binding to thrombin was evaluated in an ELISA-type assay. Wells of a 96 well plate were coated with 100 μL of 30 μg/mL human α-thrombin and incubated at 4 C overnight. The plate was washed twice with DDI H2O and passivated with 3% BSA in IX PBS buffer for 1 hour. The plate was shaken out and 50 μL of varying concentrations of analyte (DNA tile synbody, DNA tile with each aptamer with the other not present, and each aptamer alone, respectively) were incubated at RT for 1 hour. DNA tiles were biotin-modified at the 5′ end of one of the distal DNA strands 346 (see FIG. 26(a)). The plate was rinsed 10 times in IXPBS and 50 μL of 1:1000 dilution of streptavidin-HRP in 0.1% BSA in IX PBS was pipetted and incubated for 1 hour at RT. The plate was again rinsed and 50 μL of TMB was added and incubated at RT for 15 minutes. 50 μL of 0.5M HCl was added and the plate was read immediately. Results are shown in FIG. 27 for the DNA tile synbody 350; the DNA tile with Apt1 (SEQ ID NO: 20) but not Apt2 (SEQ ID NO: 21) present 352; the DNA tile with Apt2 but not Apt1 (SEQ ID NO: 20) present 356; Apt1 (SEQ ID NO: 20) alone 354; and Apt2 (SEQ ID NO: 21) alone 358. Dissociation constant values estimated from this assay were about 1 nM for the DNA tile synbody, about 10 nM for Apt1 (SEQ ID NO: 20) alone, and more than 1 μM for Apt2 (SEQ ID NO: 21) alone.

[3] = target: T1, transferrin; test: SPR analysis of 1:1 polypeptide pairs for binding to distinct sites on immobilized target; details: SPR response of pair mixture versus single polypeptides
Description: The transferrin target was immobilized on a Biacore T100 SPR chip, and candidate polypeptides were applied in 1:1 mixtures in pairs and response data obtained, in accordance with the methods described in Example 4 above.

[4] = system: 8,000 human proteins (GST fusion); test: Invitrogen Protoarray Human Protein Microarray (8,000 features), fluorescence intensity of bound ligand; type: binding
Method: Two biotinylated anti-TRF synbodies (SYN23-26 and SYN 21-22) were applied to a protein microarray having 8,000 features (Invitrogen Protoarray Human Protein Microarray v. 4.0 for immune response biomarker profiling), each feature comprising a distinct human protein (GST fusion) adsorbed to a nitrocellulose coated slide. Application of the synbodies to the microarray was performed in accordance with manufacturer instructions: (see ProtoArray Human Protein Microarray, Invitrogen, Catalog no. PAH052401, Version B, 15 Dec. 2006, 25-0970, Users Manual.) After blocking the array with 1% BSA/PBS/0.1% Tween for 1 hour at 4 C with gentle shaking, 120 μl of probing buffer (1×PBS, 5 mM mgCl2, 0.5 mM DTT, 0.05% Triton X-100, 5% glycerol, 1% BSA) with synbody was applied to the array. The prescribed cover slip was placed over the array and adjusted to remove air bubbles. The array was incubated in a 50 ml conical tube, printed side up, for 1.5 hours at 4 C without shaking The array was then removed from the conical tube inserted diagonally into the array chamber, kept on ice. 8 ml probing buffer was added to the chamber wall. The cover slip was removed and the array was incubated in probing buffer for 1 minute on ice. […] The array was dried in the dark for 60 minutes at room temperature, after which it was scanned using a fluorescent microarray scanner and data was taken and analyzed.

[5] = estimated from steady-state SPR response, 25° C., PBST pH 7.4, read-out: Solution Phase KD
[6] = restates Table 3, read-out: solution phase affinities for transferrin, range of KD

T1 sequence (P02787 20-698, species assumed): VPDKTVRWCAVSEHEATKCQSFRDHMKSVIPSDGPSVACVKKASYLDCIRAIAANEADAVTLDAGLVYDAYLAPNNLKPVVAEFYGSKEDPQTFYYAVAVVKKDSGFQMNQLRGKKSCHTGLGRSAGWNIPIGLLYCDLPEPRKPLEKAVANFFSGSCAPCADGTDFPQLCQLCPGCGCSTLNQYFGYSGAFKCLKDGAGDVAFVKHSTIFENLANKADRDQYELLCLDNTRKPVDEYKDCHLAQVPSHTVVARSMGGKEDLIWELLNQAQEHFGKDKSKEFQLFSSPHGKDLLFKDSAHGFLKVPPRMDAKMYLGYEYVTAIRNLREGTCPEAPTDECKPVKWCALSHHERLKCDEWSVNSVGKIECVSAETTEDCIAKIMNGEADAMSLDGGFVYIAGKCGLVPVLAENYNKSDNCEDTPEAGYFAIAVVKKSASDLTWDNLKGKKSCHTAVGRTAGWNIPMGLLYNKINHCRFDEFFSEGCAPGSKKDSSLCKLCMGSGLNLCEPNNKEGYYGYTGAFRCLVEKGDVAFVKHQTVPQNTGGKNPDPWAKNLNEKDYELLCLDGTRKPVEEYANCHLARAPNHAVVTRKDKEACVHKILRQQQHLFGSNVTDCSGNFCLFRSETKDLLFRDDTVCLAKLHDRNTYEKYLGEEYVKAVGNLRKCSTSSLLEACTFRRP

Substance: 5′-AGTCCGTGGTAGGGCAGGTTGGGGTGACT-3′ [Apt1]
Kd [2]: ~0.01 µM

Substance: I: H-FRGWAHIFFGPHVIYRGGSGKC / II: H-AHKVVPQRQIRHAYNRYGSG (amide I:21-II:C) [SYN23-26]
highest affinity target from library of 8,000 [4]: PCCA | targets bound with intensities higher than that of 1C10 for TRF [4]: seven targets

Substance: 5′-GGTTGGTGTGGTTGG-3′ [Apt2]
Kd [2]: > 1 µM

Other lines, results leading:

Kd [1, 5]: ~60 µM
Substance: APYAPQQIHYWSTLGFKGSC [TRF25]

Kd [1, 6]: 50 to 100 µM | binding to distinct sites on target [3]: bind distinct sites on transferrin
Substance: AHKVVPQRQIRHAYNRYGSC [TRF26]

Kd [1, 5]: ~50 µM | Kd [1, 6]: 50 to 100 µM | binding to distinct sites on target [3]: bind distinct sites on transferrin
Substance: FRGWAHIFFGPHVIYRGGSC [TRF23]

Kd [1, 5]: ~60 µM
Substance: QYHHFMNLKRQGRAQAYGSC [TRF21]
